Structures can show the parent of a compound that is named as a salt.
Tests used:
Wee-1 kinase = molecular target: T1, Wee-1 kinase (Homo sapiens, UniProt P30291); assay: Measurement of Wee-1 kinase activity (ADP-Glo luminescent kit); assay type: biochemical
T1 construct: purchased Invitrogen PV3817
Outline: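 ADP-Glo luminescence reads ADP made over 1 h at RT, after an aliquot of 30 μM ATP and 2.0 μg/mL poly(Lys,Tyr 4:1) substrate. Before that, the kinase sat 30 min with inhibitor in Tris-HCl/MgCl2 buffer with BSA and DTT. IC50 came from regression of percent inhibition.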

[1] = test system: phospho-cdc2 (Tyr15) in HT-29 cells; assay: Effect on phosphorylation of cdc2 at Tyr15, PathScan ELISA (Method 2); assay type: cell-based; conditions: Homo sapiens, 8 h, eight hours incubation, read-out: HT29 pCDC2 method 2
Procedure: Method 2: Determining the Effect of Compounds on the phosphorylation of cdc2 at Tyr15
The colorectal cancer cell lines HT-29 and HCT-116 were purchased from the ATCC and routinely maintained in McCoy's Medium (Invitrogen) supplemented with 10% Foetal Calf Serum.
The cells were trypsinised from their growing vessel and counted, 100 μL of cell suspension containing 6000 cells was pipetted into black 96 well Co-star plates and incubated overnight to allow adherence to the surface at a temperature of 37° C. and an atmosphere of 5% CO2. Test compounds were formulated in DMSO and diluted in foetal calf serum supplemented medium. Incubating medium was removed by aspiration and diluted drug supplemented medium added to each well.
The plate was returned to the incubator for an additional eight hours at 37° C. and an atmosphere of 5% CO2. Post incubation, the drug supplemented medium was aspirated from each well and the cells were washed once in ice-cold phosphate buffered saline (PBS). 100 μL of cell lysis buffer (Cell Signalling Technologies #9803) containing 20 mM Tris, 150 mM NaCl, 1 mM EDTA, 1 mM EGTA, 1% Triton-X100, 2.5 mM sodium pyrophosphate, 1 mM glycerophosphate, 1 mM Na3VO4 and 1 μg/mL leupeptin was added to each well of the 96 well plate and incubated at 4° C. for 30 min. The samples on the plate were snap frozen at −80° C. until required. Immediately before the continuation of the assay, the sample plate was thawed and centrifuged at 4° C. for 10 min and the supernatant transferred to secondary tubes or 96 well plate.
Cell supernatant was mixed in a ratio of 1:1 with sample dilutent buffer and vortexed for one minute. 100 μL of diluted sample was pipetted into pre-coated plates containing a rabbit polyclonal antibody for phospho-cdc2 (Tyr15) (Cell Signalling Technologies PathScan kit #7176). The plate was sealed and incubated overnight at 4° C.
The plate seal was removed and the well contents aspirated, followed by 3×5 min washes with 200 μL of diluted wash buffer. Between each wash the plate was tapped firmly onto blotting paper to ensure the removal of all kit solution. 100 μL of kit detection antibody was added to each well and the plate re-sealed and incubated at 37° C. for 1 h. Post incubation the plate was washed and processed in a similar manner to that previously described.
100 μL of horseradish peroxidise-linked secondary antibody was added to each test well, the plate sealed and incubated for thirty minutes at 37° C. Post incubation, the plate was washed as previously stated, followed by the addition of 100 μL of 3,3′,5,5′ tetramethylbenzidine (TMB reagent). The plate was sealed and incubated at RT for 30 min.
100 μL of stop solution was added to each well and the underside of the plate wiped with a lint-free tissue, prior to spectrophotometric determination. Absorbance from each well was read at 450 nm within 30 min of the addition of the stop solution.
The percentage of phospho-cdc2 was calculated compared to DMSO control and plotted versus the concentration of inhibitor using GraphPad Prism. Data was fitted using non-linear regression analysis and IC50 values generated.

[2] = CLint estimates using human liver microsomes (Method 4); assay type: in vitro ADME; conditions: pH 7.4, 1 μM compound, read-out: Mics - CLint (HLM CLint)
Outline: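 Depletion measured by LC/MS/MS in MRM mode over 2–50 min after starting reactions with 1 mM NADPH. Incubations used 0.5 mg/mL human liver microsomal protein, 1 μM compound, 0.1% DMSO, pH 7.4 phosphate buffer, 37 °C. ln peak area plotted against time; the gradient gave t½ and intrinsic clearance.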

[3] = test system: phospho-cdc2 (Tyr15) in HT-29 cells; assay: Effect on Cdc2 phosphorylation at Tyr15, Cell-Based ELISA Base Kit (Method 3); conditions: Homo sapiens, HT-29, 8 h, eight hours incubation, normalized to total cdc2, read-out: HT29 pCDC2 method 3
Outline: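 HT-29 cells were treated with compounds for 8 h at 37 °C, then fixed in 4% formaldehyde. Phospho-cdc2 (Tyr15) and total cdc2 were read by dual-fluorogenic cell-based ELISA at 600/450 nm. Phospho signal was normalized to total cdc2 and expressed as % of DMSO control, and EC50 came from non-linear regression.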

T1 sequence (P30291 whole entry): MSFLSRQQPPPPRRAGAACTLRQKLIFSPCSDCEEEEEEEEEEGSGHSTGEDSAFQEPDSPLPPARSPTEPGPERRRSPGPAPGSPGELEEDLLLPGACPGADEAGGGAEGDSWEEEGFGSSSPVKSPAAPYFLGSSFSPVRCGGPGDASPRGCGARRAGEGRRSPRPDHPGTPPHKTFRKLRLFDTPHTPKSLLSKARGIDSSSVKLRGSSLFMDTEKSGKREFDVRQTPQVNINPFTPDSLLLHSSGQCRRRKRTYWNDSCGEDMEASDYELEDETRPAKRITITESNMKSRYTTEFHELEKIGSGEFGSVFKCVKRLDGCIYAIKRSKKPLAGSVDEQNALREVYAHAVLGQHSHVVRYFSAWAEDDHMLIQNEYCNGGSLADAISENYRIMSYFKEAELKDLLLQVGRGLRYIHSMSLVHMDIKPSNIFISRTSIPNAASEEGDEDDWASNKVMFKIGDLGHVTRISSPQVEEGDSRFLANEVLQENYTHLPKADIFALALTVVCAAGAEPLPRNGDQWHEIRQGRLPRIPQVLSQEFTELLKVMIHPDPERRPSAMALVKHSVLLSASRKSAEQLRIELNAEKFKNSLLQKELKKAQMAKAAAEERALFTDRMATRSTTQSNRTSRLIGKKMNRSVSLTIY

Structure (SMILES)	IC50 (Wee-1 kinase) [nM]	IC50 [1] [nM]	microsomal CLint at 1 μM [2] [µL/min/mg]	EC50 [3] [nM]
CN1CCN(Cc2ccc(Nc3ncc4c(n3)N(C)CN(c3c(Cl)cccc3Cl)C4=O)cc2)CC1 [Example 29, 3-(2,6-Dichlorophenyl)-1-methyl-7-((4-((4-methylpiperazin-1-yl)methyl)phenyl)amino)-2,3-dihydropyrimido[4,5-d]pyrimidin-4(1H)-one]	10 to 100	100 to 1000	≥ 50	
CN1CN(c2c(Cl)cccc2Cl)C(=O)c2cnc(Nc3ccc(N4CCNCC4)c(F)c3)nc21 [Example 7, 3-(2,6-Dichlorophenyl)-7-((3-fluoro-4-(piperazin-1-yl)phenyl)amino)-1-methyl-2,3-dihydropyrimido[4,5-d]pyrimidin-4(1H)-one]	10 to 100	100 to 1000	≤ 15	
CN1CN(c2c(Cl)cccc2Cl)C(=O)c2cnc(Nc3ccc(CN4CCOCC4)cc3)nc21 [Example 27, 3-(2,6-Dichlorophenyl)-1-methyl-7-((4-(morpholinomethyl)phenyl)amino)-2,3-dihydropyrimido[4,5-d]pyrimidin-4(1H)-one]	10 to 100	100 to 1000	≥ 50	
CN1CN(c2c(Cl)cccc2Cl)C(=O)c2cnc(Nc3ccc(S(C)(=N)=O)cc3)nc21 (racemic) [Example 30, (rac)-3-(2,6-Dichlorophenyl)-1-methyl-7-((4-(S-methylsulfonimidoyl)phenyl)amino)-2,3-dihydropyrimido[4,5-d]pyrimidin-4(1H)-one]	10 to 100	≥ 1000		
CN1c2nc(Nc3ccc4c(c3)CNCC4)ncc2C(=O)N(c2c(Cl)cccc2Cl)C1c1ccccc1 (racemic) [Example 23, (rac)-3-(2,6-Dichlorophenyl)-1-methyl-2-phenyl-7-((1,2,3,4-tetrahydroisoquinolin-7-yl)amino)-2,3-dihydropyrimido[4,5-d]pyrimidin-4(1H)-one]	≥ 100	≥ 1000	15 to 50	
O=C1c2cnc(Nc3ccc(N4CCNCC4)cc3)nc2NCN1c1c(Cl)cccc1Cl [Example 9, 3-(2,6-Dichlorophenyl)-7-((4-(piperazin-1-yl)phenyl)amino)-2,3-dihydropyrimido[4,5-d]pyrimidin-4(1H)-one]	10 to 100	100 to 1000	≤ 15	
CN1CCN(c2ccc(Nc3ncc4c(n3)N(C)CN(c3c(Cl)cccc3Cl)C4=O)cc2CO)CC1 [Example 33, 3-(2,6-dichlorophenyl)-7-((3-(hydroxymethyl)-4-(4-methylpiperazin-1-yl)phenyl)amino)-1-methyl-2,3-dihydropyrimido[4,5-d]pyrimidin-4(1H)-one]	≤ 10		15 to 50	100 to 1000
Cc1cc(Nc2ncc3c(n2)N(C)CN(c2c(Cl)cccc2Cl)C3=O)ccc1N1C[C@@H]2C[C@H]1CN2C [Example 77, 3-(2,6-dichlorophenyl)-1-methyl-7-((3-methyl-4-((1S,4S)-5-methyl-2,5-diazabicyclo[2.2.1]heptan-2-yl)phenyl)amino)-2,3-dihydropyrimido[4,5-d]pyrimidin-4(1H)-one]	≤ 10		15 to 50	100 to 1000
CN1CN(c2c(Cl)cccc2Cl)C(=O)c2cnc(Nc3ccc(N4CCNC(C)(C)C4)cc3)nc21 [Example 96, 3-(2,6-dichlorophenyl)-7-((4-(3,3-dimethylpiperazin-1-yl)phenyl)amino)-1-methyl-2,3-dihydropyrimido[4,5-d]pyrimidin-4(1H)-one]	≤ 10		15 to 50	100 to 1000
CN(C)CC(=O)N1CCN(c2ccc(Nc3ncc4c(n3)N(C)CN(c3c(Cl)cccc3Cl)C4=O)cc2CO)CC1 [Example 161, 3-(2,6-dichlorophenyl)-7-((4-(4-(2-(dimethylamino)acetyl)piperazin-1-yl)-3-(hydroxymethyl)phenyl)amino)-1-methyl-2,3-dihydropyrimido[4,5-d]pyrimidin-4(1H)-one]	≤ 10		15 to 50	100 to 1000
CN1CN(c2c(Cl)cccc2Cl)C(=O)c2cnc(Nc3ccc(C4CCNCC4)c(CO)c3)nc21 [Example 167, 3-(2,6-dichlorophenyl)-7-((3-(hydroxymethyl)-4-(piperidin-4-yl)phenyl)amino)-1-methyl-2,3-dihydropyrimido[4,5-d]pyrimidin-4(1H)-one]	≤ 10		≤ 15	≥ 1000
CNCc1cc(Nc2ncc3c(n2)N(C)CN(c2c(Cl)cccc2Cl)C3=O)ccc1N1CCS(=O)(=O)CC1 [Example 146, 3-(2,6-dichlorophenyl)-7-((4-(1,1-dioxidothiomorpholino)-3-((methylamino)methyl)phenyl)amino)-1-methyl-2,3-dihydropyrimido[4,5-d]pyrimidin-4(1H)-one]	≤ 10		≤ 15	≥ 1000

More lines, main results first:

IC50 (Wee-1 kinase) [nM]	IC50 [1] [nM]	microsomal CLint at 1 μM [2] [µL/min/mg]	Structure (SMILES)	EC50 [3] [nM]
10 to 100	≥ 1000	≤ 15	CN1CN(c2c(Cl)cccc2Cl)C(=O)c2cnc(Nc3ccc(N4CCN(CC(=O)O)CC4)cc3)nc21 [Example 4, 2-(4-(4-((6-(2,6-Dichlorophenyl)-8-methyl-5-oxo-5,6,7,8-tetrahydropyrimido[4,5-d]pyrimidin-2-yl)amino)phenyl)piperazin-1-yl)acetic acid hydrochloride]	
10 to 100	100 to 1000	≤ 15	O=C1c2cnc(Nc3ccc(N4CCNCC4)cc3)nc2N2CCCC2N1c1c(Cl)cccc1Cl (centres unmarked) [Example 28, 6-(2,6-Dichlorophenyl)-2-((4-(piperazin-1-yl)phenyl)amino)-6a,7,8,9-tetrahydropyrimido[5,4-e]pyrrolo[1,2-a]pyrimidin-5(6H)-one]	
10 to 100	≥ 1000	≤ 15	CC1N(C)c2nc(Nc3ccc(N4CCNCC4)cc3)ncc2C(=O)N1c1c(Cl)cccc1Cl (centres unmarked) [Example 26, 3-(2,6-Dichlorophenyl)-1,2-dimethyl-7-((4-(piperazin-1-yl)phenyl)amino)-2,3-dihydropyrimido[4,5-d]pyrimidin-4(1H)-one]	
10 to 100		15 to 50	CN1CCN(c2ccc(Nc3ncc4c(n3)N(C)CN(c3c(Cl)cccc3Cl)C4=O)cc2)[C@H](CO)C1 [Example 128, (S)-3-(2,6-dichlorophenyl)-7-((4-(2-(hydroxymethyl)-4-methylpiperazin-1-yl)phenyl)amino)-1-methyl-2,3-dihydropyrimido[4,5-d]pyrimidin-4(1H)-one]	100 to 1000
≤ 10		15 to 50	CN1CN(c2c(Cl)cccc2Cl)C(=O)c2cnc(Nc3ccc(N4CCN(C)C(C)(C)C4)cc3)nc21 [Example 63, 3-(2,6-dichlorophenyl)-1-methyl-7-((4-(3,3,4-trimethylpiperazin-1-yl)phenyl)amino)-2,3-dihydropyrimido[4,5-d]pyrimidin-4(1H)-one]	100 to 1000
10 to 100		15 to 50	C[C@@H]1CN(c2ccc(Nc3ncc4c(n3)N(C)CN(c3c(Cl)cccc3Cl)C4=O)cc2C(C)(C)O)CCN1 [Example 140, (R)-3-(2,6-dichlorophenyl)-7-((3-(2-hydroxypropan-2-yl)-4-(3-methylpiperazin-1-yl)phenyl)amino)-1-methyl-2,3dihydropyrimido [4,5-d]pyrimidin-4(1H)-one]	≥ 1000

Source: patent US9850247B2 (Almac Discovery Limited, priority 2013, dated 2017)
